Experimental data reported in article PMC6268071, “α-Glucosidase Inhibitory Constituents from Acanthopanax senticosus Harm Leaves” (Molecules, 2012).
Where two headings read alike, the source gives them in different places.

Molecular target: α-Glucosidase (EC.3.2.1.20) from Saccharomyces sp.
Assay: α-Glucosidase inhibition assay
Assay type: biochemical
Method: Open column chromatography was carried out using silica gel (200–300 mesh, Qingdao Marine Chemical Co., Qingdao, China) or octadecyl silica gel (ODS, 25–40 μm, Fuji, Tokyo, Japan) as stationary phases. TLC employed precoated silica gel plates (5–7 μm, Qingdao Marine Chemical Co., Qingdao, China). Preparative HPLC was carried out on a Waters 600 instument equipped with a Waters RID-2414 detector. A Waters Sunfire prep C18 OBD (19 × 250 mm i.d.; Milford, PA, USA) column was used for preparative purposes. The IR spectra were recorded as KBr pellets on a Jasco 302-A spectrometer. Optical rotation was recorded on a Jasco P-2000 polarimeter. HRESIMS were measured on a FTMS-7 instrument (Bruker Daltonics, Karlsruhe, Germany). Melting points were determined on a Gallenkemp apparatus and are uncorrected. The ^1H-, ^13C- and 2D (^1H-^1H COSY, HSQC, HMBC, NOESY) NMR spectra were recorded on a Bruker AMX-400 spectrometer using standard pulse sequences. Chemical shifts are reported in ppm (δ), and scalar coupling are reported in Hz. GC analyses were carried out using a Fuli 9790 instrument, DM-5 column (0.25 μm, 30 m × 0.25 mm, Dikma, Beijing, China). α-Glucosidase (EC.3.2.1.20) from Saccharomyces sp. was purchased from Wako Pure Chemical Indutries Ltd. (Wako 076-02841; Osaka, Japan).
The α-glucosidase (EC.3.2.1.20) enzyme inhibition assay has been performed according to the literature. α-Glucosidase (25 μL, 0.2 U/mL), various concentrations of samples (25 μL), and 67 mM phosphate buffer (pH 6.8, 175 μL) were mixed at room temperature for 10 min. Reactions were initiated by the addition of 23.2 mM p-nitrophenyl-α-D-glucopyranoside (25 μL). The reaction mixtures were incubated at 37 °C for 15 min in a final volume of 250 μL, and then 1 M Na2CO3 (50 μL) was added to the incubation solution to stop the reaction. The activities of glucosidase were detected in a 96-well plate, and the absorbance was read at 405 nm by a microplate spectrophotometer (Spectra Max, Molecular Devices, Sunnyvale, CA, USA). The negative control was prepared by adding phosphate buffer instead of the sample in the same way as the test. […] The blank was prepared by adding phosphate buffer instead of α-glucosidase using the same method. The inhibition rates (%) were calculated from the formula: […]

[1] = in vitro α-glucosidase inhibitory assay, substrate p-nitrophenyl-α-D-glucopyranoside, pH 6.8, 37 °C, value ± SEM, read-out: IC50 (μM ± SEM)
[2] = read-out: α-glucosidase inhibitory activity IC50

Structure (SMILES) | IC50 [1] [µM] | IC50 [2] [µM] | α-glucosidase inhibition activity (in words) (qualitative statement)
COC(=O)[C@H]1O[C@@H](O[C@H]2CC[C@@]3(C)C(CC[C@]4(C)C3CC=C3C5CC(C)(C)CC[C@]5(C(=O)O)CC[C@]34C)C2(C)C)[C@H](O[C@@H]2O[C@@H](C)[C@H](O)[C@@H](O)[C@H]2O)[C@@H](O)[C@@H]1O (stereo partly drawn) [Compound 1, 3-O-[(α-L-rhamnopyranosyl)(1→2)]-[β-D-glucuronopyranosyl-6-O-methyl ester]-olean-12-ene-28-olic acid] | 908 ± 67.3 | 186 | –
COC(=O)[C@H]1O[C@@H](O[C@H]2CC[C@@]3(C)C(CC[C@]4(C)C3CC=C3C5CC(C)(C)CC[C@]5(C(=O)O)CC[C@]34C)C2(C)C)[C@H](O)[C@@H](O)[C@@H]1O (stereo partly drawn) [Compound 2, 3-O-(β-D-glucuronopyranosyl-6-O-methyl ester)-olean-12-ene-28-olic acid] | > 1000 | – | –
C=C(C)[C@@H]1CC[C@]2(C(=O)O[C@@H]3O[C@H](CO[C@@H]4O[C@H](CO)[C@@H](O[C@@H]5O[C@@H](C)[C@H](O)[C@@H](O)[C@H]5O)[C@H](O)[C@H]4O)[C@@H](O)[C@H](O)[C@H]3O)CC[C@]3(C)[C@H](C[C@H]4OC(=O)C[C@@H](O)[C@]5(C)[C@@H]4[C@@]3(C)CC[C@H]5C(=C)C)[C@@H]12 [Compound 3, chiisanoside] | > 1000 | – | –
C=C(C)[C@@H]1C[C@H](O)[C@]2(C(=O)O[C@@H]3O[C@H](CO[C@@H]4O[C@H](CO)[C@@H](O[C@@H]5O[C@@H](C)[C@H](O)[C@@H](O)[C@H]5O)[C@H](O)[C@H]4O)[C@@H](O)[C@H](O)[C@H]3O)CC[C@]3(C)[C@H](C[C@H]4OC(=O)C[C@@H](O)[C@]5(C)[C@@H]4[C@@]3(C)CC[C@H]5C(=C)C)[C@@H]12 [Compound 4, 22α-hydroxychiisanoside] | 820 ± 91.6 | 908 | –

The next lines start with results.

IC50 [1] [µM] | IC50 [2] [µM] | Structure (SMILES) | α-glucosidase inhibition activity (in words) (qualitative statement)
> 1000 | – | COC(=O)CC1C(=O)Nc2ccc(OC)cc21 (stereo not drawn) [Compound 5, 5-methoxy-2-oxoindolin-3-acetic acid methyl ester] | –
186 ± 12 | 820 | Oc1ccc([C@H]2Oc3cc(O)cc(O)c3C[C@@H]2O)cc1 [Compound 6, (+)-afzelechin] | significant α-glucosidase inhibition activity
> 1000 | – | OCc1ccc(-c2nccc3c2[nH]c2ccccc23)o1 [Compound 7, perlolyrine] | –
> 1000 | – | O=C(O)c1cc2c([nH]c3ccccc32)c(-c2ccc(CO)o2)n1 [Compound 8, 3-carboxylperlolyrine] | –
